Consider twelve molecules from ChEMBL document CHEMBL1201862, “PubChem BioAssay data set” (2004).

Test systems include HOP-92; M14; RXF 393; UACC-257; TK-10; HT-29; RPMI-8226; NCI-H522; NCI-H460; SF-539; K562; SK-OV-3; A549; MOLT-4; LOX IMVI; SNB-19; T47D; PC-3; Hs-578T; BT-549.
Assay in all cases: inhibition of tumour cell growth, NCI panel, 48 h

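Assay format: 96-well plates, 48-hour exposure. GI50: concentration for 50% inhibition of growth.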 Active and inactive are the calls of the source. Rule as the data show it: active = GI50 up to about 1.1 µM and inactive = higher.

For the molecule `Cc1cc(N(CCC#N)CCC#N)ccc1/C=C1N=C(/C=C\c2ccccc2)OC\1=O`, the GI50 in the assay with HOP-92, with M14, in the assay with RXF 393, with UACC-257, in the assay on TK-10 and with HT-29 was > 100 µM (inactive) throughout. Moreover, the GI50 with RPMI-8226, in the assay on NCI-H522, in the assay with NCI-H460, in the assay on SF-539, in the assay with K562 and in the assay with SK-OV-3 was > 100 µM (inactive) each time. The GI50 with A549, with MOLT-4, in the assay with LOX IMVI and in the assay on SNB-19 was > 100 µM (inactive) each time.

As to `CN(Cc1cnc2nc(N)nc(N)c2n1)c1ccc(C(=O)NC(CCC(=O)O)C(=O)O)cc1C(F)(F)F` (stereo not drawn), the GI50 is > 100 µM (inactive) in the assay with HOP-92; > 100 µM (inactive) in the assay with RXF 393; > 100 µM (inactive) with T47D; 25.8 µM (inactive) in the assay on UACC-257; > 78.3 µM (inactive) with TK-10; < 0.01 µM (active) in the assay on HT-29. Also, the GI50 in the assay with RPMI-8226, with NCI-H522, in the assay with NCI-H460, in the assay on PC-3, in the assay on SF-539 and with K562 was < 0.01 µM (active) each time. Also, the GI50 with SK-OV-3 is > 100 µM (inactive); in the assay on A549, < 0.01 µM (active); with MOLT-4, < 0.01 µM (active); with Hs-578T, > 72.9 µM (inactive); in the assay with LOX IMVI it was < 0.01 µM (active).

On to `O=C(Nc1ccc(Sc2ccc(/N=N/c3c(O)c(S(=O)(=O)O)cc4cc(S(=O)(=O)O)ccc34)cc2)cc1)c1ccc(/N=N/c2c(O)c(S(=O)(=O)O)cc3cc(S(=O)(=O)O)ccc23)cc1`, for which the GI50 in the assay on HOP-92 is 30.5 µM (inactive); in the assay with M14 it was 24.9 µM (inactive); in the assay on RXF 393, 33.1 µM (inactive); in the assay on UACC-257, 13.8 µM (inactive); in the assay on TK-10, 27.5 µM (inactive); in the assay with HT-29 it was 32.1 µM (inactive). For the same molecule, the GI50 was 5.53 µM (inactive) in the assay with RPMI-8226; 12.2 µM (inactive) with NCI-H522; 14.5 µM (inactive) with NCI-H460; 45.8 µM (inactive) with SF-539; 19.4 µM (inactive) with K562; > 100 µM (inactive) in the assay with SK-OV-3. Moreover, the GI50 is 26.7 µM (inactive) in the assay on A549, 9.25 µM (inactive) in the assay with MOLT-4, 18.5 µM (inactive) in the assay with LOX IMVI and 48.3 µM (inactive) in the assay with SNB-19.

`C/C(=C\CNc1ncnc2c1ncn2CCC(=O)OC(C)(C)C)CO`: the GI50 with HOP-92, in the assay with M14, in the assay on RXF 393, with T47D, with UACC-257 and in the assay on TK-10 was > 100 µM (inactive) throughout. Also, the GI50 in the assay on HT-29, in the assay on RPMI-8226, in the assay on NCI-H522, in the assay with NCI-H460, with PC-3 and in the assay on SF-539 was > 100 µM (inactive) each time. Further, the GI50 with K562, in the assay with SK-OV-3, in the assay on A549, in the assay on MOLT-4, with Hs-578T and in the assay with LOX IMVI was > 100 µM (inactive) each time. Further, the GI50 in the assay with SNB-19 is > 100 µM (inactive).

Take `c1ccc2c(c1)nnn1c3cnccc3nc21`: the GI50 with HOP-92 was 24.6 µM (inactive); in the assay on M14 it was 91 µM (inactive); in the assay on RXF 393 it was 24.7 µM (inactive); in the assay on UACC-257, 85.1 µM (inactive); in the assay with TK-10, 35.2 µM (inactive); in the assay with HT-29 it was 28.2 µM (inactive). For the same molecule, the GI50 was 18.5 µM (inactive) with RPMI-8226; 13.9 µM (inactive) in the assay with NCI-H522; 16 µM (inactive) in the assay on NCI-H460; 35.4 µM (inactive) in the assay with SF-539; 21.6 µM (inactive) with K562; 42.2 µM (inactive) with SK-OV-3. Further, the GI50 was 30.9 µM (inactive) in the assay on A549, 15.7 µM (inactive) in the assay with MOLT-4, 39.1 µM (inactive) in the assay with LOX IMVI and 47.6 µM (inactive) in the assay with SNB-19.

As to `CC(=O)c1ccc(NCc2cc(O)ccc2O)cc1`, the GI50 is 17.9 µM (inactive) in the assay on HOP-92; 19.1 µM (inactive) in the assay with M14; 14 µM (inactive) in the assay with RXF 393; 14.3 µM (inactive) in the assay on T47D; 17.5 µM (inactive) in the assay with UACC-257; 15.3 µM (inactive) in the assay with TK-10. The GI50 in the assay on HT-29 is 32.1 µM (inactive); with RPMI-8226 it was 5.38 µM (inactive); with NCI-H522, 31.3 µM (inactive); in the assay on NCI-H460, 23.1 µM (inactive); in the assay on PC-3, 15.2 µM (inactive); in the assay with SF-539, 14.5 µM (inactive). For the same molecule, the GI50 is 32.2 µM (inactive) in the assay with K562; 23 µM (inactive) in the assay on SK-OV-3; 3.85 µM (inactive) with MOLT-4; 29.4 µM (inactive) in the assay on Hs-578T; 24.8 µM (inactive) with LOX IMVI; 38.8 µM (inactive) with SNB-19.

As to `COc1cc([C@@H]2c3cc(O)c(OC)cc3C=C(C(N)=O)[C@H]2C(N)=O)ccc1O`, the GI50 in the assay on HOP-92, in the assay on M14, in the assay on RXF 393, in the assay on T47D, in the assay with UACC-257 and in the assay with HT-29 was > 100 µM (inactive) in each case. Besides, the GI50 in the assay on RPMI-8226, with NCI-H522, in the assay with NCI-H460, in the assay on PC-3, with SF-539 and in the assay with K562 was > 100 µM (inactive) in each case. The GI50 in the assay with A549, in the assay on MOLT-4, in the assay on Hs-578T, in the assay with LOX IMVI and in the assay on SNB-19 was > 100 µM (inactive) in each case.

For `O=C(/C=C/c1cccs1)c1ccc(Cl)cc1`, the GI50 in the assay with T47D is 56.1 µM (inactive); in the assay on UACC-257 it was > 100 µM (inactive); with TK-10 it was > 100 µM (inactive); with HT-29, 39.7 µM (inactive); with RPMI-8226, 22.2 µM (inactive); with NCI-H460, > 100 µM (inactive). The GI50 was > 100 µM (inactive) in the assay on PC-3; > 100 µM (inactive) in the assay with SF-539; > 10 µM (inactive) in the assay with K562; > 100 µM (inactive) in the assay on SK-OV-3; > 100 µM (inactive) with A549; 23.3 µM (inactive) in the assay with MOLT-4. Also, the GI50 with Hs-578T and with SNB-19 was > 100 µM (inactive) in each case.

On to `CN(C)CCNC(=O)c1cccc2c(NC(CCC(N)=O)C(=O)O)c3ccccc3nc12` (stereo not drawn), for which the GI50 in the assay on HOP-92 is 14.5 µM (inactive); with M14, 7.55 µM (inactive); in the assay on UACC-257, 8.2 µM (inactive); in the assay on TK-10 it was 34.1 µM (inactive); with HT-29 it was 4.67 µM (inactive); with RPMI-8226, 9.57 µM (inactive). Further, the GI50 in the assay on NCI-H522 is 5.75 µM (inactive); in the assay on NCI-H460, 11.1 µM (inactive); in the assay with PC-3 it was 5.43 µM (inactive); with SF-539 it was 5.55 µM (inactive); in the assay with BT-549 it was 10.5 µM (inactive); with K562 it was 4.4 µM (inactive). For the same molecule, the GI50 is 9.95 µM (inactive) in the assay on SK-OV-3; 5.08 µM (inactive) with A549; 3.29 µM (inactive) with MOLT-4; 5.48 µM (inactive) with LOX IMVI; 3.49 µM (inactive) with SNB-19.

For the molecule `CC(C)(CN1CCOCC1)C(=O)/C=C/c1ccc(/C=C/C(=O)C(C)(C)CN2CCOCC2)cc1`, the GI50 with HOP-92 was 2.33 µM (inactive); in the assay on M14, 1.69 µM (inactive); in the assay with RXF 393, 1.83 µM (inactive); in the assay on UACC-257, 1.99 µM (inactive); in the assay on TK-10, 1.86 µM (inactive); in the assay with HT-29, 0.467 µM (active). Moreover, the GI50 with RPMI-8226 is 2.7 µM (inactive); in the assay with NCI-H522 it was 0.278 µM (active); in the assay on NCI-H460, 3.5 µM (inactive); in the assay with SF-539, 2.07 µM (inactive); in the assay with K562, 0.239 µM (active); in the assay with SK-OV-3, 3.85 µM (inactive). The GI50 in the assay with A549 was 2.89 µM (inactive); with MOLT-4, 0.281 µM (active); in the assay with LOX IMVI it was 0.393 µM (active); in the assay on SNB-19 it was 1.55 µM (inactive).

As for `CCc1cccc(C(C)C)c1N1C(=O)C(=O)C(c2nc3ccccc3s2)C(=O)C1=O`, the GI50 in the assay with HOP-92 is > 50 µM (inactive); with M14 it was > 44.4 µM (inactive); with RXF 393, > 50 µM (inactive); in the assay with UACC-257, > 39.3 µM (inactive); in the assay with TK-10, > 50 µM (inactive); with HT-29, > 30.6 µM (inactive). Besides, the GI50 was 18.3 µM (inactive) in the assay on RPMI-8226; 17.7 µM (inactive) in the assay on NCI-H522; > 50 µM (inactive) with NCI-H460; > 50 µM (inactive) with SF-539; 16.3 µM (inactive) with K562; > 50 µM (inactive) with SK-OV-3. Further, the GI50 is > 50 µM (inactive) in the assay on A549, 12.6 µM (inactive) with MOLT-4, > 46.2 µM (inactive) in the assay with LOX IMVI and > 50 µM (inactive) in the assay on SNB-19.

Take `CCOc1ccc(NC(=O)C(=O)CC(=O)c2sc(NNC(C)=O)nc2C)cc1`: the GI50 in the assay with HOP-92, in the assay with M14, in the assay with RXF 393, with UACC-257, in the assay with TK-10 and with HT-29 was > 100 µM (inactive) each time. Further, the GI50 in the assay on RPMI-8226, in the assay on NCI-H522, in the assay with NCI-H460, in the assay on SF-539, with K562 and in the assay with SK-OV-3 was > 100 µM (inactive) in each case. Moreover, the GI50 in the assay on A549, in the assay with MOLT-4, in the assay on LOX IMVI and with SNB-19 was > 100 µM (inactive) throughout.
